Measurements: ChEMBL document CHEMBL3593198 (Bioorg Med Chem, 2015)
Active and inactive are the calls of the source. The calls are words filed in the database; no cut-off is given here.

Key:
HeLa [1] = test: Cytotoxicity against human HeLa cells after 48 hrs by MTT assay; type: functional, cell-based
[2] = Cytotoxicity against human RKO-AS45-1 cells after 48 hrs by MTT assay; type: functional, cell-based; conditions: RKOAS451, 48 h
[3] = Cytotoxicity against human WI-26 VA4 cells after 48 hrs by MTT assay; type: cell-based; conditions: WI26VA4, 48 h
HeLa [4] = test: Selectivity index, ratio of IC50 for human WI-26 VA4 cells to IC50 for human HeLa cells; type: functional
[5] = Selectivity index, ratio of IC50 for human WI-26 VA4 cells to IC50 for human RKO-AS45-1 cells; type: functional
[6] = molecular target: T1, Sodium/potassium-transporting ATPase subunit alpha-1 (Homo sapiens, UniProt P05023); test: Inhibition of human kidney Na(+)/K(+) ATPase alpha-1 assessed as amount of Pi release after 1 hr by colorimetric method
[7] = molecular target: Sodium/potassium-transporting ATPase subunit alpha-2/alpha-3 (Rattus norvegicus, UniProt P06686+P06687); test: Inhibition of Wistar rat brain Na(+)/K(+) ATPase alpha-2/3 assessed as amount of Pi release after 1 hr by colorimetric method
[8] = molecular target: T2, Sodium/potassium-transporting ATPase (Homo sapiens) (UniProt P05023+P14415+P05026+P50993+P54709+P13637+Q13733+P54710); test: Inhibition of Na(+)/K(+) ATPase in human HeLa cells at 10 uM after 24 hrs by immunoblotting; type: cell-based
[9] = molecular target: T1, Sodium/potassium-transporting ATPase subunit alpha-1; test: Inhibition of human kidney Na(+)/K(+) ATPase alpha-1 assessed as amount of Pi release at 10 uM after 1 hr by colorimetric method
[10] = molecular target: Sodium/potassium-transporting ATPase subunit alpha-2/alpha-3 (Rattus norvegicus) (UniProt P06686+P06687); test: Inhibition of Wistar rat brain Na(+)/K(+) ATPase alpha-2/3 assessed as amount of Pi release at 10 uM after 1 hr by colorimetric method
HeLa [11] = test: Inhibition of Na(+)/K(+) ATPase alpha-1 expression in human HeLa cells at 150 nM after 24 hrs by immunoblotting; type: functional, cell-based
[12] = molecular target: T2, Sodium/potassium-transporting ATPase (Homo sapiens); conditions: HeLa, 150 nM
Description: Inhibition of Na(+)/K(+) ATPase in human HeLa cells at 150 nM after 24 hrs by immunoblotting

HeLa [13] = test: Inhibition of Na(+)/K(+) ATPase alpha-1 expression in human HeLa cells at 10 uM after 24 hrs by immunoblotting; type: functional, cell-based

In the case of `COc1ccc(/C=C2\OC(=O)C=C2[C@H]2CC[C@]3(O)[C@@H]4CC[C@@H]5C[C@@H](O[C@H]6C[C@H](O)[C@H](O[C@H]7C[C@H](O)[C@H](O[C@H]8C[C@H](O)[C@H](O)[C@@H](C)O8)[C@@H](C)O7)[C@@H](C)O6)CC[C@]5(C)[C@H]4C[C@@H](O)[C@]23C)cc1`, the IC50 (HeLa [1]) is reported as 61.4 µM, the IC50 [2] is reported as 79 µM and the IC50 [3] is reported as 78.3 µM. For the same compound, the “Ratio IC50” value (HeLa [4]) was 1.27, the “Ratio IC50” value [5] was 0.99 and the IC50 [6] was 0.57 µM. For the same compound, the IC50 [7] was 0.46 µM and the inhibition [8] was “inactive”.

Compound `C[C@H]1O[C@@H](O[C@H]2[C@@H](O)C[C@H](O[C@H]3[C@@H](O)C[C@H](O[C@H]4CC[C@@]5(C)[C@H](CC[C@@H]6[C@@H]5C[C@@H](O)[C@]5(C)[C@@H](C7=CC(=O)O/C7=C\c7cccc([N+](=O)[O-])c7)CC[C@]65O)C4)O[C@@H]3C)O[C@@H]2C)C[C@H](O)[C@@H]1O` has an IC50 (HeLa [1]) of 65.2 µM, an IC50 [2] of 41.3 µM and an IC50 [3] of 44.1 µM. The “Ratio IC50” value (HeLa [4]) was 0.68, the “Ratio IC50” value [5] was 1.07 and the IC50 [6] was 11 µM. For the same compound, the IC50 [7] was 4 µM and the inhibition [8] was “inactive”.

`C[C@H]1O[C@@H](O[C@H]2[C@@H](O)C[C@H](O[C@H]3[C@@H](O)C[C@H](O[C@H]4CC[C@@]5(C)[C@H](CC[C@@H]6[C@@H]5C[C@@H](O)[C@]5(C)[C@@H](C7=CC(=O)O/C7=C\c7ccc(Cl)cc7)CC[C@]65O)C4)O[C@@H]3C)O[C@@H]2C)C[C@H](O)[C@@H]1O` showed an IC50 (HeLa [1]) of 40.1 µM, an IC50 [2] of 23.8 µM and an IC50 [3] of 28.7 µM. The “Ratio IC50” value (HeLa [4]) was 0.72, the “Ratio IC50” value [5] was 1.21 and the inhibition [9] was “inactive”. The inhibition [10] was “inactive” and the inhibition [8] was “inactive”.

For `C[C@H]1O[C@@H](O[C@H]2[C@@H](O)C[C@H](O[C@H]3[C@@H](O)C[C@H](O[C@H]4CC[C@@]5(C)[C@H](CC[C@@H]6[C@@H]5C[C@@H](O)[C@]5(C)[C@@H](C7=CC(=O)O/C7=C\c7ccc(F)cc7)CC[C@]65O)C4)O[C@@H]3C)O[C@@H]2C)C[C@H](O)[C@@H]1O`, the IC50 (HeLa [1]) was 60.9 µM, the IC50 [2] was 41.4 µM and the IC50 [3] was 54.1 µM. For the same compound, the “Ratio IC50” value (HeLa [4]) was 0.89, the “Ratio IC50” value [5] was 1.31 and the IC50 [6] was 0.34 µM. For the same compound, the IC50 [7] was 0.66 µM and the inhibition [8] was “inactive”.

In the case of `C[C@H]1O[C@@H](O[C@H]2[C@@H](O)C[C@H](O[C@H]3[C@@H](O)C[C@H](O[C@H]4CC[C@@]5(C)[C@H](CC[C@@H]6[C@@H]5C[C@@H](O)[C@]5(C)[C@@H](C7=CC(=O)O/C7=C\c7cccc(Cl)c7Cl)CC[C@]65O)C4)O[C@@H]3C)O[C@@H]2C)C[C@H](O)[C@@H]1O`, the IC50 (HeLa [1]) is reported as 42.5 µM, the IC50 [2] is reported as 19 µM and the IC50 [3] is reported as 15.5 µM. For the same compound, the “Ratio IC50” value (HeLa [4]) was 0.36, the “Ratio IC50” value [5] was 0.81 and the IC50 [7] was 18 µM. The inhibition [8] was “inactive”.

With `C[C@H]1O[C@@H](O[C@H]2[C@@H](O)C[C@H](O[C@H]3[C@@H](O)C[C@H](O[C@H]4CC[C@@]5(C)[C@H](CC[C@@H]6[C@@H]5C[C@@H](O)[C@]5(C)[C@@H](C7=CC(=O)OC7)CC[C@]65O)C4)O[C@@H]3C)O[C@@H]2C)C[C@H](O)[C@@H]1O` [DIGOXIN] the IC50 [2] was 0.42 µM, the inhibition (HeLa [11]) was “inactive” and the inhibition [12] was “Active”.

Work on `C[C@H]1O[C@@H](O[C@H]2[C@@H](O)C[C@H](O[C@H]3[C@@H](O)C[C@H](O[C@H]4CC[C@@]5(C)[C@H](CC[C@@H]6[C@@H]5C[C@@H](O)[C@]5(C)[C@@H](C7=CC(=O)O/C7=C\c7ccc(N(C)C)cc7)CC[C@]65O)C4)O[C@@H]3C)O[C@@H]2C)C[C@H](O)[C@@H]1O` yielded an IC50 (HeLa [1]) of 0.26 µM, an IC50 [2] of 0.48 µM and an IC50 [3] of 0.65 µM. For the same compound, the “Ratio IC50” value (HeLa [4]) was 2.5, the “Ratio IC50” value [5] was 1.35 and the IC50 [6] was 9.8 µM. For the same compound, the IC50 [7] was 20 µM, the inhibition [8] was “Active” and the inhibition (HeLa [11]) was “inactive”. For the same compound, the inhibition (HeLa [13]) was “inactive” and the inhibition [12] was “Active”.
